Assay [1] relates to Wnt activity, Sp5-Luc reporter in SW480 colon carcinoma cells. The experiment in a line: Screening assay for Wnt activity (Sp5-Luc reporter gene assay). Type of assay: cell-based, human. (In general: A reporter such as luciferase makes a cellular process visible.)
Method: The screening assay for Wnt activity is described as follows.
Following incubation, 15 μl of BriteLite Plus luminescence reagent (Perkin Elmer) was added to each well of the 384-well assay plates. The plates were placed on an orbital shaker for 2 min and then luminescence was quantified using the Envision (Perkin Elmer) plate reader.
In assay [2] the test system is Tau phosphorylation at Ser396 (pSer396). The experiment in a line: Tau phosphorylation assay (pSer396) in SH-SY5Y cells. Type of assay: cell-based, human. Conditions: overnight (16-18 h) exposure, pSer396 Tau ELISA.
Method: Two days before treatment, cells were seeded onto 96 well plates at 5×10^4 cells/well.
Wells were visually checked for cell death or change in morphology and supernatants were tested for cytotoxicity by measurement of lactate dehydrogenase release (LDH, CytoToxOne kit, Promega) if necessary.
Cells were lysed with RIPA buffer complemented with phosphatase and protease inhibitors then lysates were spun down at 12,000 g for 10 min to remove any cellular debris. Lysates are then either directly tested for pSer396 by ELISA (Life Technology, Kit KHB7031) or loaded on NuPage Bis-Tris gels for western blot analysis. Colorimetric detection of ELISA signal is performed by Cytation3 plate reader (Biotek) and the chemiluminescence signal for HRP-linked antibodies used in western blotting is detected using a Carestream Image Station. The same pSer396 antibody is used for detection of pTau in both assays.
For assay [3], the system named is SW480 colon carcinoma cells. Nature of the assay: Cell viability assay (CellTiter-Glo). The format is cell-based, human. The following applies: four days incubation.
For assay [4], the system named is LL29 cells (αSMA positive cells). Nature of the assay: Fibrosis assay: TGF-β1 treated primary human fibroblasts from IPF patients, αSMA staining. Type of assay: cell-based. The following applies: LL29 cells treated with TGF-β1, 4 days.
The test system of the next assay is IL-6. The experiment in a line: IL-6 inhibition in LPS-stimulated human peripheral blood mononuclear cells (HTRF). The format is cell-based. Conditions: LPS-stimulated huPBMCs, IL-6 HTRF.

By EC50 is commonly meant the concentration at which the effect is half-maximal. High values mean a need for much substance, low ones an effect from little substance.

The structures appear in SMILES notation. Some results are limits rather than exact numbers.

Method for IL-6: After 22 hour incubation, a mixture of anti-IL6 XL665 and anti-IL-6 Cryptate diluted in reconstitution buffer (Catalog #62IL6PEC, Cisbio Inc., Bedford, Mass.) was added to each well. […] All samples were processed in duplicate. […] EC50 was determined using software generated by Dotmatics Limited (Windhill Bishops Stortford Herts, UK) using the Levenberg-Marquardt 4 parameter fitting procedure with finite different gradients.

As to `Cn1cc(-c2ccc3cnc(NC(=O)C(C)(C)F)cc3c2)nn1` [Compound 312, 2-Fluoro-2-methyl-N-(6-(1-methyl-1H-1,2,3-triazol-4-yl)isoquinolin-3-yl) propanamide], the “percent inhibition at 10 μM” value in assay [1] (given for EC50 of >10 μM) came out at 23.8%. In addition, the EC50 is above 10 µM in assay [1] (incubated 36 to 48 hours); 0.762 µM in assay [2]; above 10 µM in assay [3]; above 10 µM in assay [4] (αSMA staining); above 10 µM with IL-6. In addition, the “percent inhibition at 10 μM (given where EC50 >10 μM)” value in assay [4] (10 μM) is 36.5%; with IL-6 (10 μM) it was 3.9%.

The values are drawn from patent publication US11673881B2, “Isoquinolin-3-yl carboxamides and preparation and use thereof” (BioSplice Therapeutics, Inc., priority 2016, dated 2023).
